Results published in ChEMBL document CHEMBL4043279 (Bioorg Med Chem Lett, 2017).
pIC50: −log10 of the molar value.

What was measured:
PC-3 = experiment: Antiproliferative activity against human PC3 cells treated for 24 hrs measured after 72 hrs by MTT assay; type: functional, cell-based
HL-60 = experiment: Antiproliferative activity against human HL60 cells treated for 24 hrs measured after 72 hrs by MTT assay; type: functional, cell-based
PBMC = experiment: Antiproliferative activity against human PBMC treated for 24 hrs measured after 72 hrs by MTT assay; type: cell-based
HepG2 = experiment: Antiproliferative activity against human HepG2 cells treated for 24 hrs measured after 72 hrs by MTT assay; type: functional, cell-based
THP-1 = experiment: Antiproliferative activity against human THP1 cells treated for 24 hrs measured after 72 hrs by MTT assay; type: functional, cell-based

Compound | pIC50 (PC-3) | pIC50 (HL-60) | pIC50 (PBMC) | pIC50 (HepG2) | pIC50 (THP-1)
CN1c2ccccc2C(=O)N2CCc3c(n(CCCOC(=O)c4ccc(N(CCCl)CCCl)cc4)c4ccccc34)C21 (stereo not given) | < 4.00 | 4.51 | < 3.70 | < 4.00 | 5.18
CN1c2ccccc2C(=O)N2CCc3c(n(CCCOCCCOC(=O)c4ccc(N(CCCl)CCCl)cc4)c4ccccc34)C21 (stereo not given) | < 4.00 | 4.65 | < 3.70 | < 4.00 | 5.03
CN1c2ccccc2C(=O)N2CCc3c(n(CCOC(=O)CCCc4ccc(N(CCCl)CCCl)cc4)c4ccccc34)C21 (stereo not given) | 4.34 | 4.95 | < 3.70 | < 4.00 | 5.32
CN1c2ccccc2C(=O)N2CCc3c(n(CCCOCCCOC(=O)CCCc4ccc(N(CCCl)CCCl)cc4)c4ccccc34)C21 (stereo not given) | 4.56 | 5.89 | < 3.70 | < 4.00 | 5.27
COC(=O)[C@H](Cc1ccc(N(CCCl)CCCl)cc1)NC(=O)CCC(=O)OCCCCCCn1c2c(c3ccccc31)CCN1C(=O)c3ccccc3N(C)C21 (stereo not given in full) | < 4.00 | 5.55 | < 3.70 | < 4.00 | 5.37
CN1c2ccccc2C(=O)N2CCc3c(n(CCCCCCOC(=O)c4ccc(N(CCCl)CCCl)cc4)c4ccccc34)C21 (stereo not given) | < 4.00 | 4.63 | < 3.70 | < 4.00 | 5.41
CN1c2ccccc2C(=O)N2CCc3c(n(CCCOCCCO)c4ccccc34)C21 (stereo not given) | 4.70 | 5.27 | < 3.70 | < 4.00 | 5.07
CN1c2ccccc2C(=O)N2CCc3c(n(CCCCCCO)c4ccccc34)C21 (stereo not given) | 4.67 | 5.07 | < 3.70 | < 4.00 | 5.16
CN1c2ccccc2C(=O)N2CCc3c(n(CCCCCCOC(=O)CCCc4ccc(N(CCCl)CCCl)cc4)c4ccccc34)C21 (stereo not given) | < 4.00 | 4.76 | < 3.70 | < 4.00 | 4.98
CN1c2ccccc2C(=O)N2CCc3c(n(CCCO)c4ccccc34)C21 (stereo not given) | 4.56 | 5.22 | < 3.70 | < 4.00 | 5.05
